Assay results published in patent publication US20120122860A1, “SOLID FORMS OF SULFONAMIDES AND AMINO ACIDS” (Plexxikon, Inc., priority 2009, published 2012).

How the values were obtained:
[1] = molecular target: MAP4K4 (Homo sapiens, UniProt O95819); experiment: Kinase activity assay, MAP4K4
[2] = molecular target: Src (Homo sapiens, UniProt P12931); experiment: Kinase activity assay, Src
[3] = molecular target: T1, A-Raf (Homo sapiens, UniProt P10398); experiment: Kinase activity assay, A-Raf
T1 sequence (P10398 1-606): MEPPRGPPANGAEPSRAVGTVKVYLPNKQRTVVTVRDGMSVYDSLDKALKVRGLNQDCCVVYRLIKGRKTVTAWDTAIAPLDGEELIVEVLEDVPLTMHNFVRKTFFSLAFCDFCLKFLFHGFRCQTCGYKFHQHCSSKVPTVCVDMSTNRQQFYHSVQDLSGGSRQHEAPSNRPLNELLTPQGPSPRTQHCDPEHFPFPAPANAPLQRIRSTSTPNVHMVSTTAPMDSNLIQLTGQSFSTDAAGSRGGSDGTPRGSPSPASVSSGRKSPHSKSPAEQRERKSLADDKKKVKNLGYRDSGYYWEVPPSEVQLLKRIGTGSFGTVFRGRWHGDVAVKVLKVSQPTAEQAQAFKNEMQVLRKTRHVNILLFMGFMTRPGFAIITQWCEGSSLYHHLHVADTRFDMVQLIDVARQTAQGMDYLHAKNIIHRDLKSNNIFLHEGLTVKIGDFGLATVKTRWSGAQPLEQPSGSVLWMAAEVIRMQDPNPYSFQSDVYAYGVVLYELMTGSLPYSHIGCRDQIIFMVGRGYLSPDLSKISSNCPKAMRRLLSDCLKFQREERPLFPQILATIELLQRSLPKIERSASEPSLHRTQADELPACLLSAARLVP

[4] = molecular target: B-Raf (Homo sapiens, UniProt P15056); experiment: Kinase activity assay, B-Raf; type: biochemical; settings: read-out: activity toward kinase B-Raf, IC50
[5] = molecular target: B-Raf V600E (Homo sapiens, UniProt P15056, V600E); experiment: Kinase activity assay, B-Raf V600E; type: biochemical; settings: read-out: activity toward kinase B-Raf V600E, IC50
[6] = molecular target: Kdr (Homo sapiens, UniProt P35968); experiment: Kinase activity assay, Kdr
[7] = molecular target: Kit (Homo sapiens, UniProt P10721); experiment: Kinase activity assay, Kit
[8] = molecular target: C-Raf (Homo sapiens, UniProt P04049); experiment: Kinase activity assay, C-Raf

Measured: IC50

Chain of C-Raf (P04049 whole entry): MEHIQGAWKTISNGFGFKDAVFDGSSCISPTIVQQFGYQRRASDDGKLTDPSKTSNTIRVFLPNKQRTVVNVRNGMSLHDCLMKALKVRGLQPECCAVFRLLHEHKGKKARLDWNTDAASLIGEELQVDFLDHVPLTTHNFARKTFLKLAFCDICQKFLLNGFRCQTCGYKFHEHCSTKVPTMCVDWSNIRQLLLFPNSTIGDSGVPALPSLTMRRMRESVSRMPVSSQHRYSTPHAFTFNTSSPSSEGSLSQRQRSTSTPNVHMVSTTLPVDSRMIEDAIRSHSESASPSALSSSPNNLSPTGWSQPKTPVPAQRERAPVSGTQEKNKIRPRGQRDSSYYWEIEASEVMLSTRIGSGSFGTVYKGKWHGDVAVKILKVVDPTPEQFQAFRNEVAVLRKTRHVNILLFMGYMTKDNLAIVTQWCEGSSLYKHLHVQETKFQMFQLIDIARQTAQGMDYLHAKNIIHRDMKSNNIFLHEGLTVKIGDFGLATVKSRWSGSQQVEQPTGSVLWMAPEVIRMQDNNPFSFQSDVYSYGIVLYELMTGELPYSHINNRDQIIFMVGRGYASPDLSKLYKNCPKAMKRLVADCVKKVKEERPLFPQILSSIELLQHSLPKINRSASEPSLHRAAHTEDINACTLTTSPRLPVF
Chain of Src (P12931 whole entry): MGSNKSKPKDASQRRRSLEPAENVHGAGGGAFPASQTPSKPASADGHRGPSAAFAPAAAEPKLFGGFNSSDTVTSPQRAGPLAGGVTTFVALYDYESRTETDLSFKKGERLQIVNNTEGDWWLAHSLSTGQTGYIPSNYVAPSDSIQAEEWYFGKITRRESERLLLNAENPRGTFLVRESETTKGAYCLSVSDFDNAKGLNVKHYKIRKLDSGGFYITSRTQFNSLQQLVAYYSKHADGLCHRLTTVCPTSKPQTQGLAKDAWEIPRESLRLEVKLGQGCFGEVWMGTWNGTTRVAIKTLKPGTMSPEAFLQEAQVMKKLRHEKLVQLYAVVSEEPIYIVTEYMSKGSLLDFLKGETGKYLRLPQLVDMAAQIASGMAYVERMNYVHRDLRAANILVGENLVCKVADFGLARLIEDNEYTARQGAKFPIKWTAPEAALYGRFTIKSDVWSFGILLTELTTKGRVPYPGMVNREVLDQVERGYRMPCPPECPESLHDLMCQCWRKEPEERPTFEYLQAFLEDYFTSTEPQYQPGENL
Chain of Kit (P10721 26-976): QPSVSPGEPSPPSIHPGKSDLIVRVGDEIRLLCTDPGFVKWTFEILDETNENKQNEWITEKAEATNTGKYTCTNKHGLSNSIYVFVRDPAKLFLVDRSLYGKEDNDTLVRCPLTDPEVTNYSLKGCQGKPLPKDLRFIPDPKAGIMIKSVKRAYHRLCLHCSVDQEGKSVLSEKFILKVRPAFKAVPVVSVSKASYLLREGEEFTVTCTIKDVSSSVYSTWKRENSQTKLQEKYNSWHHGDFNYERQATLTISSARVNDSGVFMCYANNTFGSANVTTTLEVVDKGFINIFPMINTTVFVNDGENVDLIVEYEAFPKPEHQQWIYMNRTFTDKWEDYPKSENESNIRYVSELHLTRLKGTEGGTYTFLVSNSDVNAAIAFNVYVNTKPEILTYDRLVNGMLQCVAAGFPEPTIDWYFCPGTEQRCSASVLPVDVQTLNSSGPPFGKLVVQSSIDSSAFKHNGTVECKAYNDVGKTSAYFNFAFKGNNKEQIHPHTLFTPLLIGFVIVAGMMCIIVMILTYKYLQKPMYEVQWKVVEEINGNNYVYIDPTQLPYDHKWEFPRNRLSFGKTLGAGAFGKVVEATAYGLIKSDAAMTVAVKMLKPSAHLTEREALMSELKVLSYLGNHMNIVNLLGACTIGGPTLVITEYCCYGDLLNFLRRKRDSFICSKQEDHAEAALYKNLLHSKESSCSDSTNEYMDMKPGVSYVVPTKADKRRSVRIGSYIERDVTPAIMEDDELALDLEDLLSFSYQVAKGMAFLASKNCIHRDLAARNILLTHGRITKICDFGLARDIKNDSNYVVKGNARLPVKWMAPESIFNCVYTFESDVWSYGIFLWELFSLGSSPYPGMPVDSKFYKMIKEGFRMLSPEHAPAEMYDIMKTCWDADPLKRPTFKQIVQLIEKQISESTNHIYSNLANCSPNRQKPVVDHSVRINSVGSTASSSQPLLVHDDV
Chain of B-Raf V600E (P15056 whole entry V600E): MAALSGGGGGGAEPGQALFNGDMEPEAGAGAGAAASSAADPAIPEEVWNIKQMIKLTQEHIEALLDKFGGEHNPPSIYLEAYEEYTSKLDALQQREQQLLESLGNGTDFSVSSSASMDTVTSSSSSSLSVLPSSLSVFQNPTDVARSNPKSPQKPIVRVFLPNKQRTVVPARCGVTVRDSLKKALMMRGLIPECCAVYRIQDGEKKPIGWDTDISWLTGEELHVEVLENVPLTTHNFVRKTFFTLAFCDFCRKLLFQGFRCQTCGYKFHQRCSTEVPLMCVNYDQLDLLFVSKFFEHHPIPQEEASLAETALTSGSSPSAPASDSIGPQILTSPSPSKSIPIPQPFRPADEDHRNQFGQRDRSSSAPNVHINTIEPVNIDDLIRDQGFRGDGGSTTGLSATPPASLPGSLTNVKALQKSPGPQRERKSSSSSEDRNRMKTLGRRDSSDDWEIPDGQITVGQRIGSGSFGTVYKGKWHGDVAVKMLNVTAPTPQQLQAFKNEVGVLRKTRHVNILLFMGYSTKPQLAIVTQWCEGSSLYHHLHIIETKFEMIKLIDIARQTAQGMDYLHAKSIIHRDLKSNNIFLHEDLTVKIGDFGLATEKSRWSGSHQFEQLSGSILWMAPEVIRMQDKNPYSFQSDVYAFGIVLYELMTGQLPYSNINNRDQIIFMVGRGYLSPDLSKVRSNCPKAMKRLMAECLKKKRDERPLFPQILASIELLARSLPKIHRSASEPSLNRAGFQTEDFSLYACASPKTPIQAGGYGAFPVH
Chain of Kdr (P35968 20-1356): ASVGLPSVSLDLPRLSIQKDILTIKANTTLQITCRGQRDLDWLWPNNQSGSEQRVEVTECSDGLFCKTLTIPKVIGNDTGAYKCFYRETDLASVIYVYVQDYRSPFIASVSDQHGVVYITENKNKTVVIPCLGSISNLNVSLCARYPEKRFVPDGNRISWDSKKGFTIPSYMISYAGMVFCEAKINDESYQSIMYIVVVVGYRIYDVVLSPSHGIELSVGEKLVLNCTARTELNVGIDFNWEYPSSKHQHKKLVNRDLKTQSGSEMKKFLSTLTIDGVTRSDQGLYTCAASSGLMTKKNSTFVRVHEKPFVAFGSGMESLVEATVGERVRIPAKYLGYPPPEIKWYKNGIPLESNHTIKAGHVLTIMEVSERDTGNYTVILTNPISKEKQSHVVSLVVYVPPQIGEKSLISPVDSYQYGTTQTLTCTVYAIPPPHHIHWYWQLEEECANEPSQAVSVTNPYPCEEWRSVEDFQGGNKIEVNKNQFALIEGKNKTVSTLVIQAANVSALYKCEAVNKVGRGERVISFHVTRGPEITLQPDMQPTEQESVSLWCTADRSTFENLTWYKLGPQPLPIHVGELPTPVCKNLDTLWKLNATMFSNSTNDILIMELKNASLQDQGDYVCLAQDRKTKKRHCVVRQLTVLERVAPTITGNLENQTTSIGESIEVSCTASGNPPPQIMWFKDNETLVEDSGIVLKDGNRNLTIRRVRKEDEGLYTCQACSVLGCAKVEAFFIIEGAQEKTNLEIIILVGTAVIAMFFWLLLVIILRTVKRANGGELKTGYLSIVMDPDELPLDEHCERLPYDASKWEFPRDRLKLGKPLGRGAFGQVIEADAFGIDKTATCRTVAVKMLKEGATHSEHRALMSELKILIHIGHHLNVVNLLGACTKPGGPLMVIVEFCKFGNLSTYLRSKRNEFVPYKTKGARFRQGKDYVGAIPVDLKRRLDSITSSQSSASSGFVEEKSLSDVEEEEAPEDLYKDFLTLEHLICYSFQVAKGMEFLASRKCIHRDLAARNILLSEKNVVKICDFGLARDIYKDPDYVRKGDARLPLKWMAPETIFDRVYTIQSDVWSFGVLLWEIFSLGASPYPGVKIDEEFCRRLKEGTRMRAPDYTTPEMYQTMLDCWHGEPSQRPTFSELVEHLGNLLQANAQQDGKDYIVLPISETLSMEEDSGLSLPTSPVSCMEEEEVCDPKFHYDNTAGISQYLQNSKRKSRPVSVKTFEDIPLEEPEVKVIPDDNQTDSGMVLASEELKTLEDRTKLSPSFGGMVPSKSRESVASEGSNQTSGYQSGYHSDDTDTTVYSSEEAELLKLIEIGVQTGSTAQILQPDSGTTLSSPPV
Chain of B-Raf (P15056 whole entry): as the sequence (P15056 whole entry V600E) above, with E600V counted along it

COc1cnc2[nH]cc(C(=O)c3c(F)ccc(NS(=O)(=O)c4ccccc4F)c3F)c2c1 [P-2009, N-[2,4-Difluoro-3-(5-methoxy-1H-pyrrolo[2,3-b]pyridine-3-carbonyl)-phenyl]-2-fluoro-benzenesulfonamide]
≤ 10 µM: all assays above

N#Cc1cnc2[nH]cc(C(=O)c3c(F)ccc(NS(=O)(=O)c4ccccc4F)c3F)c2c1 [P-2011, N-[3-(5-Cyano-1H-pyrrolo[2,3-b]pyridine-3-carbonyl)-2,4-difluoro-phenyl]-2-fluoro-benzenesulfonamide]
≤ 10 µM: all assays above

Cc1cnc2[nH]cc(C(=O)c3c(F)ccc(NS(=O)(=O)c4ccccc4F)c3F)c2c1 [P-2014, N-[2,4-Difluoro-3-(5-methyl-1H-pyrrolo[2,3-b]pyridine-3-carbonyl)-phenyl]-2-fluoro-benzenesulfonamide]
≤ 10 µM: all assays above

Cc1cnc2[nH]cc(C(=O)c3c(F)ccc(NS(=O)(=O)c4cccc(F)c4)c3F)c2c1 [P-2016, N-[2,4-Difluoro-3-(5-methyl-1H-pyrrolo[2,3-b]pyridine-3-carbonyl)-phenyl]-3-fluoro-benzenesulfonamide]
≤ 10 µM: all assays above

O=C(c1c(F)ccc(NS(=O)(=O)c2cccc(F)c2)c1F)c1c[nH]c2nccc(Cl)c12 [P-2019, N-[3-(4-Chloro-1H-pyrrolo[2,3-b]pyridine-3-carbonyl)-2,4-difluoro-phenyl]-3-fluoro-benzenesulfonamide]
≤ 10 µM: all assays above

N#Cc1ccnc2[nH]cc(C(=O)c3c(F)ccc(NS(=O)(=O)c4cc(F)ccc4F)c3F)c12 [P-2036, N-[3-(4-Cyano-1H-pyrrolo[2,3-b]pyridine-3-carbonyl)-2,4-difluoro-phenyl]-2,5-difluoro-benzenesulfonamide]
≤ 10 µM: all assays above

CCCS(=O)(=O)Nc1ccc(F)c(C(=O)c2c[nH]c3ncc(-c4ccc(N5CCCC5)nc4)cc23)c1F [P-2231, Propane-1-sulfonic acid {2,4-difluoro-3-[5-(6-pyrrolidin-1-yl-pyridin-3-yl)-1H-pyrrolo[2,3-b]pyridine-3-carbonyl]-phenyl}-amide]
≤ 10 µM: all assays above

CCS(=O)(=O)Nc1ccc(F)c(C(=O)c2c[nH]c3ncc(OC)cc23)c1F [P-2272, Ethanesulfonic acid [2,4-difluoro-3-(5-methoxy-1H-pyrrolo[2,3-b]pyridine-3-carbonyl)-phenyl]-amide]
≤ 10 µM: all assays above

CC(C)S(=O)(=O)Nc1ccc(F)c(C(=O)c2c[nH]c3ncc(Cl)cc23)c1F [P-2275, Propane-2-sulfonic acid [3-(5-chloro-1H-pyrrolo[2,3-b]pyridine-3-carbonyl)-2,4-difluoro-phenyl]-amide]
≤ 10 µM: all assays above

CS(=O)(=O)Nc1ccc(F)c(C(=O)c2c[nH]c3nccc(Cl)c23)c1F [P-2290, N-[3-(4-Chloro-1H-pyrrolo[2,3-b]pyridine-3-carbonyl)-2,4-difluoro-phenyl]-methanesulfonamide]
≤ 10 µM: all assays above

CCCC(C)S(=O)(=O)Nc1ccc(F)c(C(=O)c2c[nH]c3ncc(C)cc23)c1F (centres unmarked) [P-2315, Pentane-2-sulfonic acid [2,4-difluoro-3-(5-methyl-1H-pyrrolo[2,3-b]pyridine-3-carbonyl)-phenyl]-amide]
not listed: [4] | [8]
≤ 10 µM: all other assays above

COc1cnc2[nH]cc(C(=O)c3c(F)ccc(NS(=O)(=O)CCC(F)(F)F)c3F)c2c1 [P-2327, 3,3,3-Trifluoro-propane-1-sulfonic acid [2,4-difluoro-3-(5-methoxy-1H-pyrrolo[2,3-b]pyridine-3-carbonyl)-phenyl]-amide]
≤ 10 µM: all assays above

O=C(c1c(F)ccc(NS(=O)(=O)C2CCCCC2)c1F)c1c[nH]c2nccc(Cl)c12 [P-2367, Cyclohexanesulfonic acid [3-(4-chloro-1H-pyrrolo[2,3-b]pyridine-3-carbonyl)-2,4-difluoro-phenyl]-amide]
not listed: [6]
≤ 10 µM: all other assays above
